Test results: patent US20120315648A1, “METHOD OF IDENTIFICATION OF CELLS THAT SHOW SENSITIVITY TO MODULATION OF SIGNALING MEDIATED BY A FIBROBLAST GROWTH FACTOR RECEPTOR OR A VARIANT THEREOF” (priority 2007, published 2012)
“Also recorded” adds a separate entry of the source.

Experiments:
[1] = system: RT112 bladder cancer cell line; experiment: Cell proliferation assay (methylene blue, 96-well), RT112; type: cell-based; conditions: Homo sapiens, RT-112; RT112 bladder cancer cells, 72 h, average of several independent assays; read-out: IC50 (nM) ± SD, proliferation inhibition
Procedure: (§1) The bladder carcinoma cell lines are grown in MEM EBS (Minimum Essential Medium with Earls Basal Salts) (Amimed, Allschwil, Switzerland, #1-31F0-I) supplemented with 1% L-glutamine (Amimed #5-10K00-H), 1% MEM NEAA (MEM Non-essential Amino Acid Solution) (Amimed #5-13K00-H), 1% Na- pyruvate (Amimed #5-60F00-H) and 10% FCS (Gibco, Invitrogen AG, Basel, Schweiz, #10082-147).
(§2) In detail, FGF-R1, FGF-R2 and FGF-R4 expression is determined by Western Blot using specific antibodies, respectively: sc-121 (Santa Cruz), sc-122 (Santa Cruz) and sc-124 (Santa Cruz). […] Cell proliferation is measured in 96-well plates. […] Upon addition of 200 μl/well HCl (3%) and incubation for 30 min at RT on a plate shaker, the Optical Density (OD) at 650 nm is measured. The concentration of inhibitor 1 providing 50% of proliferation inhibition is calculated using Excel module.
(§3) The FGF-R dependency as well as sensitivity to inhibitor 1 and/or to inhibitor 2 for each of the indicated cell lines is characterized as indicated above. The effect of inhibitor 1 and inhibitor 2 on cell viability is assessed by means of proliferation assays; the IC50s shown are the average IC50s of several independent assays (their number given by N).

[2] = system: OPM2 multiple myeloma cell line; experiment: Cell proliferation assay (methylene blue, 96-well), OPM2; type: cell-based; conditions: Homo sapiens, OPM-2; OPM2 multiple myeloma cells, 72 h; read-out: IC50 (nM) ± SD, proliferation inhibition
Excerpt: (§4) OPM2 and KMS11: human multiple myeloma (MM) cell lines derived from end-stage disease patients. OPM2 cells are obtained from DSMZ ACC #50.
(§5) KMS11 cells are provide by Dr. T Otsuki, Kawasaki Medical School, Okayama, Japan. Both cell lines are reported to carry the t(4,14) translocation and express a mutated, constitutively activated form of FGF-R3. In particular, OPM2 cells harbour a mutation in the ATP binding pocket in the kinase domain, which results in a change of lysine in position 650 into glutamic acid. KMS11 cells harbor a mutation in the extracellular domain of the receptor changing tyrosine in position 373 into cysteine. Both cell lines are grown in RPMI 1640 (Gibco #21875) supplemented with 1% L-glutamine (Amimed #5-10K00-H) and 20% FCS (Gibco #10082-147).
as §2, with “module. […]” for “module.”

[3] = system: J82 bladder carcinoma cell line; experiment: Cell proliferation assay (methylene blue, 96-well), J82; type: cell-based, human; conditions: for IC50: Homo sapiens, J82 bladder cancer cells, 72 h, read-out: IC50 (nM) ± SD, proliferation inhibition; for sensitivity of growth to inhibition (in words): J82 cells
Procedure: J82: human urinary bladder transitional cell carcinoma established from a primary bladder carcinoma, histological grade G3, stage T3 (Masters et al. 1986, loc. cit.). Cells are obtained from ATCC # HTB-1.
as §1
(§6) In detail, FGF-R1, FGF-R2 and FGF-R4 expression is determined by Western Blot using specific antibodies, respectively: sc-121 (Santa Cruz), sc-122 (Santa Cruz) and sc-124 (Santa Cruz). To determine the expression of FGF-R3, first FGF-R3 is immunoprecipitated with the antibody F-0425 from Sigma, and the immunocomplexes are subjected to Western Blot using the antibody F-0425 from Sigma. Cell proliferation is measured in 96-well plates. The cells are seeded in a volume of 100 μl per well in the growth media given above. For RT 112, RT4 and SUM52 8500 cells/well are seeded, for VMCUB1, J82, HT1197 and KMS11, 5000 cells/well are seeded, for OPM2 30000 cells/well are seeded. Medium containing FGF-R inhibitor 1, FGFR inhibitor 2 or (as control) DMSO is added 24 h after seeding, respectively. After 72 h, cells are fixed by addition of 25 μl/well glutaraldehyde (20%) for 10 min at room temperature (RT). Cells are then washed twice with 200 μl/well H2O and 100 μl Methylene Blue (0.05%) are added. After incubation for 10 min at RT, cells are washed 3× with 200 μl/well H2O. Upon addition of 200 μl/well HCl (3%) and incubation for 30 min at RT on a plate shaker, the Optical Density (OD) at 650 nm is measured. The concentration of inhibitor 1 providing 50% of proliferation inhibition is calculated using Excel module.
as §3

[4] = system: RT4 bladder cancer cell line; experiment: Cell proliferation assay (methylene blue, 96-well), RT4; type: cell-based; conditions: Homo sapiens; RT4 bladder cancer cells, 72 h, average of several independent assays; read-out: IC50 (nM) ± SD, proliferation inhibition
Procedure: as §1, §2, §3

[5] = system: KMS11 multiple myeloma cell line; experiment: Cell proliferation assay (methylene blue, 96-well), KMS11; type: cell-based; conditions: Homo sapiens, KMS-11; KMS11 multiple myeloma cells, 72 h; read-out: IC50 (nM) ± SD, proliferation inhibition
Excerpt: as §4, §5
as §2, with “module. […]” for “module.”

[6] = system: HT1197 bladder carcinoma cell line; experiment: Cell proliferation assay (methylene blue, 96-well), HT1197; type: cell-based, human; conditions: for sensitivity of growth to inhibition (in words): HT1197 cells; for IC50: Homo sapiens, HT1197 bladder cancer cells, 72 h, read-out: IC50 (nM) ± SD, proliferation inhibition
Procedure: HT1197: human urinary bladder transitional cell carcinoma established from a recurrent bladder carcinoma, histological grade G4, stage T2 (Masters et al. 1986, loc. cit.). Cells are obtained from ATCC # CRL-1473.
as §1, §6, §3

[7] = system: FRS-2 tyrosine phosphorylation in RT4 cells; experiment: FRS-2 tyrosine phosphorylation after FGF-R inhibitor treatment (IP/Western Blot), RT4 cells; type: cell-based, human; conditions: RT4 cells treated with inhibitor, FIG. 2A
Procedure: FIG. 2: Comparative analysis of FRS-2 phosphorylation following treatment with the FGF-R inhibitor PD173074 (inhibitor 1, see Methods in Example 1) in the RT4 cells, in the case of RT112 with TKI258/CHIR258, 4-Amino-5-fluoro-3[6-(4-methyl-1-piperazinyl)-1H-benzimidazol-2-yl]-2(1H)-quinolinone (inhibitor 2, see Methods in Example 1). The cell lines indicated are treated as shown. FRS-2 tyrosine phosphorylation is determined by immunoprecipitation with a specific FRS-2 antibody followed by […] Western Blotting, or by western blot using an antibody that detects phosphorylated Tyr196 on FRS2. […] Inhib. 1=inhibitor 1, Inhib. 2=inhibitor 2, DMSO=dimethyl sulfoxide.
(§7) Cells are solubilized in 1% Triton extraction buffer containing protease and phosphatase inhibitors (“lysis buffer” 50 mM Tris pH 7.5, 150 mM NaCl, 1 mM EGTA, 5 mM EDTA, 1% Triton, 2 mM NaVanadate, 1 mM PMSF and protease inhibition cocktail from Hoffmann-LaRoche, Basel, Switzerland, #1187358001). Lysates are clarified by centrifugation at 12000×g for 15 min and protein concentration is determined using the DC Protein Assay Reagents (Bio Rad, Bio-Rad Laboratories, Inc., Hercules, Calif., USA, #500-0116) (an assay based on the method of Bradford, M., see Anal. Biochem., 72, 248 (1976), employing Coomassie Blue®, ICI) and a Bovine Serum Albumin (BSA) standard. […]

[8] = system: VMCUB1 bladder carcinoma cell line; experiment: Cell proliferation assay (methylene blue, 96-well), VMCUB1; type: cell-based, human; conditions: for IC50: Homo sapiens, VM-CUB-1, VMCUB1 bladder cancer cells, 72 h, read-out: IC50 (nM) ± SD, proliferation inhibition; for sensitivity of growth to inhibition (in words): VMCUB1 cells
Procedure: VMCUB-1: human urinary bladder transitional cell carcinoma established from a primary bladder carcinoma. Stage and histological grade are not recorded (Masters et al. 1986, loc. cit.). Cells are obtained from DSMZ ACC #400.
as §1, §6, §3

[9] = system: SUM52 breast carcinoma cell line; experiment: Cell proliferation assay (methylene blue, 96-well), SUM52; type: cell-based; conditions: Homo sapiens; SUM52 breast cancer cells, 72 h; read-out: IC50 (nM) ± SD, proliferation inhibition
Procedure: as §6, with “After 72 h, cells are fixed by addition of 25 μl/well glutaraldehyde (20%) for 10 min at room temperature (RT). Cells are then washed twice with 200 μl/well H2O and 100 μl Methylene Blue (0.05%) are added. After incubation for 10 min at RT, cells are washed 3× with 200 μl/well H2O.” left out
as §3

[10] = system: FRS-2 tyrosine phosphorylation in RT112 cells; experiment: FRS-2 tyrosine phosphorylation after FGF-R inhibitor treatment (IP/Western Blot), RT112 cells; type: cell-based, human; conditions: RT112 cells treated with inhibitor, FIG. 2B
Procedure: The cell lines indicated are treated as shown. FRS-2 tyrosine phosphorylation is determined by immunoprecipitation with a specific FRS-2 antibody followed by anti-FRS-2 Western Blotting, or by western blot using an antibody that detects phosphorylated Tyr196 on FRS2.
Immunocomplexes are collected with protein A- or protein G-sepharose (Sigma, # P-9424; Sigma, # P-3296) and washed 3 × with lysis buffer. Bound proteins are released by boiling in 2 × sample buffer (20% SDS, 20% glycerol, 160 mM Tris pH 6.8, 4% β-mercaptoethanol, 0.04% bromo-phenol blue). […]

[11] = system: MAPK activation in RT112 cells; experiment: MAPK activation upon growth factor stimulation (anti-phosphoMAPK Western Blot), RT112 cells; type: cell-based, human; conditions: EGF 10 ng/ml, insulin 5 μg/ml, FIG. 3
Procedure: (§8) FIG. 3: Comparative analysis of FRS-2 tyrosine phosphorylation upon growth factor stimulation: The bladder cancer cell lines RT112 and […] are stimulated with aFGF/heparin (50 ng/ml//5 μg/ml), EGF (10 ng/ml) (from R & D Systems, Inc., Minneapolis, Minn., USA; #236-EG-200) or insulin (5 μg/ml) (Sigma, Sigma-Aldrich, Inc., St. Louis, Mo., USA; #1882). Cells are lysed and total protein lysates are recovered. FRS-2 tyrosine phosphorylation is determined by immunoprecipitation followed by anti-pTyr antibody Western Blotting, using antibodies mentioned in Table 1 of Example 1. […] Equal amount of MAPK protein is monitored by Western Blotting with α-MAPK (MAPK in Table 1 in Example 1). […]
as §7

[12] = system: FRS-2 tyrosine phosphorylation in RT112 cells; experiment: FRS-2 tyrosine phosphorylation upon growth factor stimulation (IP/Western Blot), RT112 cells; type: cell-based, human; conditions: aFGF/heparin 50 ng/ml//5 μg/ml, EGF 10 ng/ml, insulin 5 μg/ml, FIG. 3
Procedure: as §8, §7

| Compound | IC50 [1] [nM] | IC50 [2] [nM] | IC50 [3] [nM] | sensitivity of growth to inhibition (in words) [3] | IC50 [4] [nM] | IC50 [5] [nM] | sensitivity of growth to inhibition (in words) [6] | IC50 [6] [nM] | effect on FRS-2 tyrosine phosphorylation [7] | IC50 [8] [nM] | sensitivity of growth to inhibition (in words) [8] | IC50 [9] [nM] | effect on FRS-2 tyrosine phosphorylation [10] | MAPK activation (pMAPK) [11] | induction of FRS-2 tyrosine phosphorylation [12] |
| --- | --- | --- | --- | --- | --- | --- | --- | --- | --- | --- | --- | --- | --- | --- | --- |
| CCN(CC)CCCCNc1ncc2cc(-c3cc(OC)cc(OC)c3)c(NC(=O)NC(C)(C)C)nc2n1 [Inhibitor 1, PD173074] | 14 ± 3 | 148 ± 31 | > 3000 | resistant to inhibition | 28 ± 8 | 50 ± 14 | resistant to inhibition | > 3000 | abolish FRS-2 tyrosine phosphorylation; also recorded: completely inhibits FRS-2 phosphorylation | > 3000 | resistant to inhibition |  |  |  |  |
| CN1CCN(c2ccc3nc(-c4c(N)c5c(F)cccc5[nH]c4=O)[nH]c3c2)CC1 [Inhibitor 2, 4-Amino-5-fluoro-3[6-(4-methyl-1-piperazinyl)-1H-benzimidazol-2-yl]-2(1H)-quinolinone] | 60 ± 20 |  | > 3000 | resistant to inhibition | 134 ± 58 | 93 | resistant to inhibition | > 3000 |  | > 2000 | resistant to inhibition | 190 ± 58 | abolish FRS-2 tyrosine phosphorylation |  |  |
| insulin |  |  |  |  |  |  |  |  |  |  |  |  |  | activate MAPK | fail to induce phospho-FRS-2 |
